From patent US10138282B2, “Peptide antagonist of LL-37” (INDIANA UNIVERSITY RESEARCH AND TECHNOLOGY CORPORATION, priority 2014, dated 2018)
Entries after “also recorded” stand apart in the source; their conditions may differ. Where no end group is shown, it is not given here.

Legend:
[1] = tested on: Escherichia coli ATCC 25922; experiment: MIC assay, broth microdilution (CLSI); assay type: cell-based; details: E. coli ATCC 25922; peptide: None
Experimental: MIC assays were performed according to protocols for broth microdilution according to the Clinical Laboratory Standards Institute (CLSI, 2015. Methods for Dilution Antimicrobial susceptibility tests for bacterial that grow aerobically; Approved standard—tenth edition).

TLR4 signaling = experiment: IL-6 production (ELISA) in BEAS-2B cells induced with LPS; assay type: cell-based, human; details: for IL-6 production (%) LPS-depend.: BEAS-2B cells induced with 1.0 μg/ml of LPS, LL-37 100
Experimental: (§1) IL-6 production was quantified by ELISA using the OptEIA™ kit (BD Biosciences). A typical assay used 2×10^4 BEAS-2B cells/well grown for 24 h in flat bottom 96-well plates. Poly(I:C) was added to a final concentration of 0.13 μg/ml. Antimicrobial peptides were added to the cell culture medium to a final concentration of 3 μM unless specified otherwise. All ELISA results shown were performed in triplicate and in at least three independent experiments.
(§2) To better define how residues in LL-37 contribute to function, several variants derived from LL-37 were tested for: 1) repression of TLR4 signaling by LPS, 2) enhancement of TLR3 signaling by poly(I:C), and 3) binding to LL-37. Signaling by TLR3 and TLR4 were monitored using ELISA to detect IL-6 secreted into the medium of BEAS-2B cells.

TLR3 signaling = experiment: IL-6 production (ELISA) in BEAS-2B cells induced with poly(I:C); assay type: cell-based, human; details: for Enhancement of TLR3 signaling / poly(I:C)-induced IL-6, in words: BEAS-2B cells; for IL-6 production (%) poly(I:C)-depend.: BEAS-2B cells induced with 130 ng/ml of poly(I:C), LL-37 100
Experimental: as §1, §2

[2] = Dynamic light scatter spectroscopy, hydrodynamic radius; assay type: physicochemical; details: for Hydrodynamic radius (nm) pH 5.8 / Hydrodynamic radius (nm) pH 7.4: 1.0 μM peptide; for Hydrodynamic radius (nm) pH 5.8: phosphate buffer pH 5.8; for Hydrodynamic radius (nm) pH 7.4: phosphate buffer pH 7.4; for pH-dependent dissociation of peptide particles, in words: acidification of phosphate buffer
Experimental: The hydrodynamic radii of LL-37 and other peptides were monitored by a Zetasizer Nano-S instrument (Malvern Instruments). All measurements were taken with 1 μM of peptide dissolved in phosphate buffer adjusted to the desired pH at 22° C.

poly(I:C) = experiment: Fluorescence polarization, peptide binding to poly(I:C)
Experimental: (§3) Peptide binding to poly(I:C) was analyzed by monitoring fluorescence polarization using the Synergy H1 microplate reader (BioTek). Fluorescein-labeled LL-37 was titrated to a 100 μL solution containing poly(I:C) and phosphate buffers at different pHs. Interactions between LL-37 and other peptides were analyzed using LL-37 labeled at the N-terminus with fluorescein (0.1 μM), and peptides were titrated from 1 nM to 1000 nM in phosphate buffer at pH 7.0. Interaction between poly(I:C) and different peptides was determined by titrating fluorescein-labeled poly(I:C) (0.1 μM) with peptides added to final concentrations of 10 to 500 nM in phosphate buffer at pH 7.4. All polarization assays were performed in triplicate.
LL-37 accompanies dsRNA to endosomes containing TLR3. However, it is unknown whether LL-37 will release the dsRNA in endosomes. Johansson et al. (1998) have previously determined that a neutral pH is required for the activity of LL-37. We seek to determine whether LL-37 binding to dsRNA can be affected by pH.

Reovirus dsRNA, Reo S4 = experiment: IL-6 production in BEAS-2B cells in the presence of Reovirus dsRNA Reo S4; assay type: cell-based, human
Experimental: as §1
Herein, we analyzed the LL-37 orthologs from Rhesus monkeys, pig, sheep, guinea pigs, rabbit, as well as mouse (FIG. 14A). All peptides were chemically synthesized and assayed for the induction of inflammatory cytokine IL-6 in the presence of the double-stranded RNA mimic, poly(I:C) or the Reovirus dsRNA, Reo S4 (FIGS. 14B and 14C). […] Importantly, all LL-37 orthologs tested had the ability to reduce IL-6 production in response to LPS (FIG. 14E).

f-LL37 = molecular target: T1, f-LL37 (Homo sapiens, UniProt P49913); experiment: Fluorescence polarization, interaction of peptides with fluorescein-labeled LL-37; assay type: binding
T1 sequence (P49913 134-170 limits assumed): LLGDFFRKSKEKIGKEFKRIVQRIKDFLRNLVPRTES
Experimental: as §3

[3] = tested on: LL-37 enhancement of TLR3 signaling; experiment: Antagonism of LL-37/poly(I:C)-enhanced IL-6 production in BEAS-2B cells; assay type: cell-based, human; details: peptide added with LL-37/poly(I:C), BEAS-2B cells
Experimental: as §1
We examined whether LL-29 could affect the enhancement of TLR3 signaling by WT LL-37/poly(I:C). An increasing amount of LL-29 along with a constant amount of LL-37/poly(I:C) was used to assess IL-6 production in BEAS-2B cells. […] That is, LL-29 abrogated LL-37's ability to enhance TLR3 signaling. That is, LL-29 is an example of a peptide antagonist of LL-37 function.

FPRL-1 receptor = molecular target: T2, FPRL-1 receptor (Homo sapiens, UniProt P25090); experiment: IL-6 production in BEAS-2B cells knocked down with siRNA (FPRL-1, EGFR, control); assay type: cell-based; details: for IL-6 production, peptide added along with LL-37 and poly(I:C), in words: siRNA to FPRL-1 or nonspecific control; for IL-6 production, peptide with poly(I:C), in words: knockdown of either FPRL-1 or EGFR
T2 construct: a human lung epithelial cell line that expresses endogenous FPRL-1; endogenous in cells; host or cells: BEAS-2B
T2 sequence (P25090 1-351): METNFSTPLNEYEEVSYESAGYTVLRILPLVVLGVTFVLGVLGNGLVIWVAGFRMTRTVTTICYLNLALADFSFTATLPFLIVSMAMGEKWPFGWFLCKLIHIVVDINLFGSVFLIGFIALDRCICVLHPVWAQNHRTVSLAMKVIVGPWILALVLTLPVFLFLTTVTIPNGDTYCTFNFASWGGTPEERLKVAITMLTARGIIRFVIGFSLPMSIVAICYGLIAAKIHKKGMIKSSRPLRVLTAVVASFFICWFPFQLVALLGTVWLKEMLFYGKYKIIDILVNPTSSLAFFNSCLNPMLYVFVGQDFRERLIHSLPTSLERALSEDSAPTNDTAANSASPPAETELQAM
Experimental: BEAS-2B cells were seeded at 2×10^6 cells per 6-well plate for 6 h prior to transfection with 30 nM of a pool of three siRNAs from Santa Cruz Biotechnology. Transfections were done using Lipofectamine 2000.
Cells were grown on poly-L-lysine (Life Technologies). The level of target mRNA was analyzed using qRT-PCR and normalized to the levels of GAPDH mRNA. The sequences of the primers will be made available upon request. Poly(I:C) was added 48 h after siRNA transfection and IL-6 levels in the culture media were collected 24 h later.
LL-37's enhancement of TLR3 signaling required trafficking of LL-37/poly(:C) to endosomes via the FPRL-1 receptor. Therefore, we examined whether LL-29 used the FPRL-1 receptor to enter cells. siRNA was used to knock down the expression of either FPRL-1, EGFR, or TLR3. […] Co-localization of fLL-37 and rpIC was reduced to less than a third of the control. […] Knockdowns performed with siRNAs to either a nonspecific control or EGFR had no effect on the enhancement of IL-6 production.
Will LL-29 affect the use of the FPRL-1 receptor by the LL-37/poly(I:C) complex? BEAS-2B cells knocked down for FPRL-1 were treated with LL-37 along with additional concentrations of LL-37, Pentamide, LL-29, Peptide A, or LL8-37 (FIG. 6C). Signaling by TLR3 was determined by the amount of IL-6 secreted in the cell culture media. A control siRNA had no effect on WT LL-37/poly(I:C) enhancement of IL-6 production.
LL-37 uses the Formyl peptide receptor-like 1 (FPRL-1) receptor to deliver nucleic acids into endosomes, where activation of the Toll-like receptors that recognize nucleic acids takes place (Singh et al., 2014). We sought to determine whether the LL-37 orthologs from other mammals could also use the FPRL-1 in the human BEAS-2B cells to deliver dsRNA. BEAS-2B cells were treated with poly(I:C) along with the peptides and the peptides from pig, sheep, rabbit, and mouse had reduced ability to use the FPRL-1 to activate IL-6 production.

| Compound | MIC (μg/ml) of antibiotic, no peptide [1] | IL-6 production (%) LPS-depend. (TLR4 signaling) | Enhancement of TLR3 signaling / poly(I:C)-induced IL-6, in words (TLR3 signaling) | IL-6 production (%) poly(I:C)-depend. (TLR3 signaling) | Hydrodynamic radius (nm) pH 5.8 [2] | Hydrodynamic radius (nm) pH 7.4 [2] | Binding to poly(I:C)/dsRNA in fluorescent polarization assay, in words (poly(I:C)) | pH-dependent dissociation of peptide particles, in words [2] | Interaction with fLL-37, in words (f-LL37) | IL-6 production, peptide added along with LL-37 and poly(I:C), in words (FPRL-1 receptor) | further results |
| --- | --- | --- | --- | --- | --- | --- | --- | --- | --- | --- | --- |
| COc1cccc2c1C(=O)c1c(O)c3c(c(O)c1C2=O)C[C@@](O)(C(=O)CO)C[C@@H]3O[C@H]1C[C@H](N)[C@H](O)[C@H](C)O1 [Doxorubicin, reference compound] | 0.5 µg/mL |  |  |  |  |  |  |  |  |  |  |
| NC[C@H]1O[C@H](O[C@H]2[C@H](O)[C@@H](O[C@H]3O[C@H](CO)[C@@H](O)[C@H](N)[C@H]3O)[C@H](N)C[C@@H]2N)[C@H](O)[C@@H](O)[C@@H]1O [Kanamycin, reference compound] | 4 µg/mL |  |  |  |  |  |  |  |  |  |  |
| COc1cc(Cc2cnc(N)nc2N)cc(OC)c1OC [Trimethoprim, reference compound] | 0.25 µg/mL |  |  |  |  |  |  |  |  |  |  |
| GLLRKGGEKIGEKLKKIGQKIKNFFQKLVPQPEQ [mCRAMP, murine ortholog of LL-37, reference compound] |  | 82 ± 29% | failed to enhance TLR3 signaling; also recorded: unable to enhance IL-6 production | 31 ± 3% | 1106 nm | 1718 nm | failed to bind dsRNA |  |  |  | Enhancement of IL-6 production / signaling by Reo S4, in words (Reovirus dsRNA, Reo S4): unable to enhance IL-6 production |
| LLGDFFRKSKEKIGKEFKRIVQRIKDFLRKLVPQPEQ (listed as Homo sapiens) [Peptide A] |  | 161 ± 11% |  | 41 ± 6% | 956 nm | 1990 nm | debilitated for binding RNA | reduced for the ability to dissociate under acidic pH conditions | retained partial interaction with fLL-37; also recorded: retain partial activity to interact with fLL-37 | resulted in a reduction in IL-6 levels | Antagonism of LL-37 enhancement of TLR3 signaling (IL-6), in words [3]: to a lesser degree than LL-29; also recorded: can partially antagonize the enhancement of TLR3 signaling |
| LLGNFFRKSKQKIGKQFKRIVQRIKNFLRNLVPRTQS (not fully specified) [Pentamide, five acidic residues in LL-37 replaced with neutral-polar residues, reference compound] |  | 400 ± 32% | failed to enhance TLR3 signaling | 31 ± 0% | 1990 nm | 1106 nm | failed to bind dsRNA | failed to dissociate |  | had no effect on IL-6 production unless FPRL-1 expression was reduced | Suppression of TLR4 signaling / LPS-induced IL-6, in words (TLR4 signaling; BEAS-2B cells): failed to suppress TLR4 signaling; IL-6 production, peptide with poly(I:C), in words (FPRL-1 receptor): did not enhance IL-6 production |
| RL-37: LL-37 ortholog from Rhesus monkey, SEQ ID NO: 20 (RLGNFFRKVKEKIGGGLKKVGQKIKDFLGNLVPRTAS; (1)..(37) Monkey RL-37; listed as Macaca mulatta) [reference compound] |  |  | more similar to that of the human LL-37 |  |  |  |  |  |  |  |  |
| SKEKIGKEFKRIVQRIKDFLR [LL9-29] |  | 196 ± 11% | failed to enhance TLR3 signaling | 31 ± 3% | 1281 nm | 446.5 nm |  | failed to dissociate | did not |  | Binding f-LL37: fold change in the fluorescence anisotropy values of f-LL-37 (f-LL37; between 1.0 nM and 1000 nM of added peptide): 2.6 ± 0.2 fold |
| SKEKIGKEFKRIVQRIKDFLRNLVPRTES ((1)..(29) LL8-37; listed as Homo sapiens) |  | 239 ± 21% |  | 38 ± 3% | 615 nm | 825 nm |  |  | retain partial activity to interact with fLL-37 | had no effect on IL-6 production unless FPRL-1 expression was reduced | IL-6 production, peptide with poly(I:C), in words (FPRL-1 receptor): did not enhance IL-6 production |
